Data published in article PMC7913927, “Leishmanicidal Activity of Betulin Derivatives in Leishmania amazonensis; Effect on Plasma and Mitochondrial Membrane Potential, and Macrophage Nitric Oxide and Superoxide Production” (Microorganisms, 2021).
Where two headings read alike, the source gives them in different places.

How the values were obtained:
[1] = system: L. (V.) braziliensis promastigotes, reference strain MHOM/BR/LTB300; conditions: cited from earlier work; for active concentration in L. (L.) braziliensis: reference strain MHOM/BR/LTB300
[2] = system: L. (L.) amazonensis LTB0016 promastigotes; assay: Promastigote in vitro susceptibility (Alamar Blue/resazurin), reference strain; assay type: cell-based, Leishmania amazonensis; conditions: for growth inhibition / inhibition at 50 µM: LTB0016, 50 µM; for inhibition at 50 µM: read-out: growth inhibition
Procedure: The fluorometric method of Alamar Blue® (resazurin) was used. Promastigotes grown in biphasic agar-blood medium, at the exponential phase of growth, were seeded in flat-bottom 96-well culture plates, at a cell density of 1 × 10^6 parasites mL^−1 (200,000 parasites/well), in 180 µL of RPMIc without phenol red. Subsequently, either a sole concentration (50 µM), or increasing concentrations of compounds or drugs were applied, according to each treatment group, in volumes of 2 µL. Plates were kept at 26 °C, in a humid chamber, for 72 h. […] Live parasites are metabolically active and capable of reducing non-fluorescent resazurin (blue) to fluorescent resorufin (red). Fluorescence intensity is directly proportional to the number of viable cells. […] At least two independent experiments were performed in duplicate. The effect of trivalent antimonial [SbIII, potassium antimonyl tartrate trihydrate, Sigma-Aldrich, (St. Louis, MO, USA)] was included as positive control of the assay.

[3] = system: L. (L.) braziliensis MHOM/BR/LTB300; set-up: method as in PMID 25240731; conditions: cited from earlier work
J774.1 macrophages = assay: Cytotoxicity (Alamar Blue) in macrophages; assay type: cell-based, murine; conditions: 72 h
Procedure: (§1) In flat-bottom 96-well culture plates, J774.1 macrophages were seeded at a cell density of 5 × 10^4 mL^−1 (10,000 macrophages/well) in 200 µL of RPMIc. After 24 h at 37 °C, 5% CO2, medium was replaced by 180 µL of RPMIc, without phenol red, and increasing concentrations of test compounds in 2-µL volumes. […] At least two independent experiments were performed in duplicate. Based on the inhibition of cell growth caused by the tested compounds, the percentage of growth inhibition compared to untreated cells was calculated. […] Selectivity indices (SI) were calculated, dividing the macrophage CC50 by the parasites GI50 (SI = CC50/GI50).

[4] = system: L. (L.) amazonensis VE2000MM promastigotes; assay: Promastigote in vitro susceptibility (Alamar Blue/resazurin), patient isolate VE2000MM; assay type: cell-based, Leishmania amazonensis
Procedure: (§2) The fluorometric method of Alamar Blue® (resazurin) was used. Promastigotes grown in biphasic agar-blood medium, at the exponential phase of growth, were seeded in flat-bottom 96-well culture plates, at a cell density of 1 × 10^6 parasites mL^−1 (200,000 parasites/well), in 180 µL of RPMIc without phenol red. Subsequently, either a sole concentration (50 µM), or increasing concentrations of compounds or drugs were applied, according to each treatment group, in volumes of 2 µL. Plates were kept at 26 °C, in a humid chamber, for 72 h. Resazurin was then added (20 µL of 10% v/v), to reach a final concentration of 250 µM and plates were incubated for an additional 4 h. Live parasites are metabolically active and capable of reducing non-fluorescent resazurin (blue) to fluorescent resorufin (red). Fluorescence intensity is directly proportional to the number of viable cells. The fluorometric reading was carried out using the appropriate wavelengths (ex: 540 nm/em: 580 nm) in a spectrofluorometer Victor^2 Wallac (Perkin Elmer, Turku, Finland). At least two independent experiments were performed in duplicate. The effect of trivalent antimonial [SbIII, potassium antimonyl tartrate trihydrate, Sigma-Aldrich, (St. Louis, MO, USA)] was included as positive control of the assay.

[5] = system: L. (L.) amazonensis VE98MR promastigotes; assay: Promastigote in vitro susceptibility (Alamar Blue/resazurin), patient isolate VE98MR; assay type: cell-based, Leishmania amazonensis
Procedure: as §2

[6] = system: L. (L.) amazonensis LTB0016, VE98MR and VE2000MM promastigotes; assay: Plasma membrane potential (ΔΨp), bisoxonol fluorescence; assay type: cell-based, Leishmania amazonensis; conditions: VE2000MM promastigotes; valinomycin 1 µM
Procedure: To evaluate the plasma membrane potential (ΔΨp), the fluorescent compound, bisoxonol, bis[1,3-diethylthiobarbituric acid] trimethine oxonol, was used, as well as a method optimized by Padrón-Nieves et al.. Initially, calibration curves for each strain, using increasing concentrations of KCl (0.5 to 75 mM), were performed in the late log growth phase Leishmania promastigotes in the presence of the potassium ionophore valinomycin. By this procedure, fluorescence values could be transformed into millivolts (mV), applying the Nernst equation, ΔΨp = −59.4 log(120/[KCl]). […] After 10 min of incubation in the dark, fluorescence was measured in a Victor^2 Wallac spectrofluorometer (Perkin Elmer, Turku, Finland), using the appropriate wavelengths (ex: 540 nm/em: 580 nm). […] Once the corresponding calibration curve for each strain was obtained, the effect of compounds on the ΔΨp was evaluated. […] After 10 min of incubation in the dark, fluorescence was measured, using the appropriate wavelengths (ex: 540 nm/em: 580 nm). […] To transform the fluorescence values in millivolts (mV), calibration curves were prepared using increasing concentrations of KCl (0.5, 1.15, 2.5, 5, 10, 20, 40, and 75 mM). […]

[7] = Cytotoxicity (Alamar Blue) in macrophages; assay type: cell-based, murine; conditions: mouse, J774.1 macrophages
Procedure: as §1

[8] = LTB0016 promastigotes, 72 h, read-out: Promastigote (GI50) mean
[9] = Leishmania amazonensis, LTB0016 promastigotes, 72 h, read-out: Promastigote (GI50) mean
[10] = J774.1 CC50 / LTB0016 promastigote GI50

Compound: 3,28-diformylbetulin triazolodione [Compound 26]
- GI50 [1]: < 1 µM
- active concentration in L. (L.) braziliensis [1]: less than 10 µM
- SI CC50/GI50 [2]: 5.68
- growth inhibition [2]: at least 75%
- GI50 [2, 8]: 3.85 µM
- inhibition of parasite migration [3]: inhibited parasite migration at nano and picomolar concentrations
- CC50 (J774.1 macrophages): 21.9 µM

Compound: O=NO [NaNO2, sodium nitrite]
- GI50 ([2]; data not detailed in the manuscript, parasite stage not stated, read-out: GI50 against NaNO2, LTB0016): 0.91 µM
- GI50 ([4]; data not detailed in the manuscript, parasite stage not stated, read-out: GI50 against NaNO2, VE2000MM): 4.79 µM
- GI50 ([5]; data not detailed in the manuscript, parasite stage not stated, read-out: GI50 against NaNO2, VE98MR): 3.28 µM

Compound: C=C(C)[C@@H]1CC[C@]2(C=O)CC[C@]3(C)[C@H](CC[C@@H]4[C@@]5(C)CC[C@H](O)C(C)(C)[C@@H]5CC[C@]43C)[C@@H]12 [Compound 12, betulinic aldehyde]
- growth inhibition [2]: 67%

Compound: C=C(C)[C@@H]1CC[C@]2(C(=O)O)CC[C@]3(C)[C@H](CC[C@@H]4[C@@]5(C)CC[C@H](O)C(C)(C)[C@@H]5CC[C@]43C)[C@@H]12 [Compound 13]
- growth inhibition [2]: did not show enough anti-leishmanial activity

Compound: CCCCCCCCCCCCCCCCOP(=O)([O-])OCC[N+](C)(C)C [MLF, miltefosine, reference compound]
- GI50 [2, 9]: 4.17 µM
- GI50 ([4]; Leishmania amazonensis, read-out: GI50 promastigotes VE2000MM): 5.13 µM

Compound: CC(C)[C@@H]1NC(=O)[C@H](C)OC(=O)[C@@H](C(C)C)NC(=O)[C@@H](C(C)C)OC(=O)[C@H](C(C)C)NC(=O)[C@H](C)OC(=O)[C@@H](C(C)C)NC(=O)[C@@H](C(C)C)OC(=O)[C@H](C(C)C)NC(=O)[C@H](C)OC(=O)[C@@H](C(C)C)NC(=O)[C@@H](C(C)C)OC1=O [valinomycin, reference compound]
- Effect on plasma membrane potential (ΔΨp), VE2000MM [6]: not sensitive

Compound: C=C(C)[C@@H]1CC[C@]2(C(=O)O)CC[C@]3(C)[C@H](CC[C@@H]4[C@@]5(C)CCC(=O)C(C)(C)[C@@H]5CC[C@]43C)[C@@H]12 [Compound 14]
- active concentration in L. (L.) braziliensis [1]: less than 10 µM
- growth inhibition [2]: did not show enough anti-leishmanial activity

Compound: [K+].[K+].[O]=[Cr](=[O])([O-])[O][Cr](=[O])(=[O])[O-] [Compound K2Cr2O7, K2Cr2O7]
- GI50 ([2]; data not detailed in the manuscript, parasite stage not stated, read-out: GI50 against K2Cr2O7, LTB0016): 1060 µM
- GI50 ([4]; data not detailed in the manuscript, parasite stage not stated, read-out: GI50 against K2Cr2O7, VE2000MM): > 2500 µM
- GI50 ([5]; data not detailed in the manuscript, parasite stage not stated, read-out: GI50 against K2Cr2O7, VE98MR): > 2500 µM

Compound: C=C(C)C1CCC2(C=NO)CCC3(C)C(CCC4C5(C)CCC(O)C(C)(C)C5CCC43C)C12 (stereo not shown) [Compound 17]
- active concentration in L. (L.) braziliensis [1]: less than 10 µM
- SI CC50/GI50 [2, 10]: 14.23
- growth inhibition [2]: at least 75%
- GI50 [2, 8]: 1.35 µM
- CC50 (J774.1 macrophages): 19.3 µM

Compound: potassium antimonyl tartrate trihydrate [SbIII]
- GI50 [2, 8]: 5.51 µM
- GI50 ([4]; promastigotes, read-out: GI50 promastigotes VE2000MM): 13.6 µM
- GI50 ([5]; promastigotes, read-out: GI50 promastigotes VE98MR): 9.08 µM

Compound: C=C(C)[C@@H]1CC[C@]2(CO)CC[C@]3(C)[C@H](CC[C@@H]4[C@@]5(C)CC[C@H](O)C(C)(C)[C@@H]5CC[C@]43C)[C@@H]12 [Compound 1, betulin]
- SI CC50/GI50 [2, 10]: 1.30
- inhibition at 50 µM ([2]; Leishmania amazonensis): ≥ 75%
- GI50 [2, 9]: 19.3 µM
- CC50 at 72 h [7]: 25.1 µM

Compound: N=C(N)c1ccc(OCCCCCOc2ccc(C(=N)N)cc2)cc1 [PNT, reference compound]
- GI50 [2, 8]: 0.93 µM

Compound: C=C(C)[C@@H]1CC[C@]2(C(=O)O)CC[C@]3(C)[C@H](CC[C@@H]4[C@@]5(C)CC[C@H](O)C(C)(C)[C@@H]5CC[C@]43C)[C@@H]12 [Compound 11, betulinic acid]
- inhibition at 50 µM ([2]; Leishmania amazonensis): 44%
